{"source": "patent US20140316796A1", "about": "“SYSTEMS, METHODS, AND COMPUTER-READABLE MEDIA FOR LIMITED DISTRIBUTION OF SPECIALTY DRUG USING A COMPUTER HUB OPERATING AT A SINGLE ACCESS POINT” (Jazz Pharmaceuticals, priority 2013, published 2014)", "origin": "cited, not measured here", "key": {"[1]": {"details": "in vivo"}, "[2]": {"details": "pH 4"}}}
{"molecule": "CSCC[C@@H]1NC(=O)[C@H](CC(C)C)NC(=O)[C@H](CCCNC(=N)N)NC(=O)[C@H](CO)NC(=O)[C@@H]2CSSC[C@@H]3NC(=O)[C@H](CO)NC(=O)CNC(=O)[C@H]([C@@H](C)O)NC(=O)[C@H](CSSC[C@H](N)C(=O)N[C@@H](CCCCN)C(=O)NCC(=O)N[C@@H](CCCCN)C(=O)NCC(=O)N[C@@H](C)C(=O)N[C@@H](CCCCN)C(=O)N2)NC(=O)[C@H](CSSC[C@@H](C(N)=O)NC(=O)[C@H](CCCCN)NC(=O)CNC(=O)[C@H](CO)NC(=O)[C@H](CCCNC(=N)N)NC3=O)NC(=O)[C@H](CC(=O)O)NC(=O)[C@H](Cc2ccc(O)cc2)NC1=O", "note": "[ziconotide]", "values": [{"measurement": "addiction potential", "setting": "[1]", "value": "does not have addiction potential"}, {"measurement": "development of tolerance", "setting": "[1]", "value": "tolerance does not appear to develop"}, {"measurement": "effect on respiratory function", "setting": "[1]", "value": "does not suppress respiratory function"}, {"measurement": "stabilisation by methionine-containing buffer", "setting": "[2]", "value": "effective in stabilizing ziconotide"}]}
